# Reference: article PMC12736255, “Reinvestigating Pyrrol-2-One-Based Compounds: From Antimicrobial Agents to Promising Antitumor Candidates” (Pharmaceuticals, 2025)
# Experiments:
# [1] = tested on: fungal strains; parameters: method as in PMID 38398524; conditions: cited from earlier work
# [2] = tested on: IGROV1; assay: NCI-60 5-dose screen; type: cell-based, human
# [3] = tested on: MDA-MB-468; assay: NCI-60 5-dose screen; type: cell-based, human
# [4] = tested on: HOP-62; assay: NCI-60 5-dose screen; type: cell-based, human
# [5] = tested on: SK-OV-3; assay: NCI-60 5-dose screen; type: cell-based, human
# [6] = tested on: A549/ATCC; assay: NCI-60 5-dose screen; type: cell-based, human
# [7] = tested on: RXF 393; assay: NCI-60 5-dose screen; type: cell-based, human
# [8] = tested on: BT-549; assay: NCI-60 5-dose screen; type: cell-based, human
# [9] = tested on: HL-60(TB); assay: NCI-60 5-dose screen; type: cell-based, human
# [10] = tested on: HOP-92; assay: NCI-60 5-dose screen; type: cell-based, human
# [11] = tested on: SNB-75; assay: NCI-60 5-dose screen; type: cell-based, human
# [12] = tested on: NCI-H226; assay: NCI-60 5-dose screen; type: cell-based, human
# [13] = tested on: M14; assay: NCI-60 5-dose screen; type: cell-based, human
# [14] = tested on: MDA-MB-231/ATCC; assay: NCI-60 5-dose screen; type: cell-based, human
# [15] = tested on: MOLT-4; assay: NCI-60 5-dose screen; type: cell-based, human
# [16] = tested on: HCT-116; assay: NCI-60 5-dose screen; type: cell-based, human
# [17] = tested on: T-47D; assay: NCI-60 5-dose screen; type: cell-based, human
# [18] = tested on: SK-MEL-2; assay: NCI-60 5-dose screen; type: cell-based, human
# [19] = tested on: KM12; assay: NCI-60 5-dose screen; type: cell-based, human
# [20] = tested on: RPMI-8226; assay: NCI-60 5-dose screen; type: cell-based, human
# [21] = tested on: OVCAR-3; assay: NCI-60 5-dose screen; type: cell-based, human
# [22] = tested on: CCRF-CEM; assay: NCI-60 5-dose screen; type: cell-based; conditions: Homo sapiens
# [23] = tested on: COLO 205; assay: NCI-60 5-dose screen; type: cell-based, human
# [24] = tested on: TK-10; assay: NCI-60 5-dose screen; type: cell-based, human
# [25] = tested on: SR; assay: NCI-60 5-dose screen; type: cell-based, human
# [26] = tested on: ACHN; assay: NCI-60 5-dose screen; type: cell-based, human
# [27] = tested on: MALME-3M; assay: NCI-60 5-dose screen; type: cell-based, human
# [28] = tested on: SF-268; assay: NCI-60 5-dose screen; type: cell-based, human
# [29] = tested on: LOX IMVI; assay: NCI-60 5-dose screen; type: cell-based, human
# [30] = tested on: A498; assay: NCI-60 5-dose screen; type: cell-based, human
# [31] = tested on: Gram-positive and Gram-negative bacteria; parameters: method as in PMID 38398524; conditions: cited from earlier work
# [32] = Homo sapiens, read-out: LC50 (the source's name)
compound,measurement,setting,value
COc1ccccc1C1C=C(Nc2ccc(I)cc2)C(=O)N1c1ccc(I)cc1 (stereo not drawn) [3i],antifungal activity (in words),[1],most effective against fungal strains
N#Cc1ccc(C2C=C(Nc3ccc(I)cc3)C(=O)N2c2ccc(I)cc2)cc1 (stereo not drawn) [3l],TGI,[2],>100 µM
same,GI50,"[2]; Homo sapiens, IGROV-1",8.67 µM
same,CC50,"[2]; Homo sapiens, IGROV-1, read-out: LC50 (the source's name)",> 100 µM
same,TGI,[3],>100 µM
same,GI50,[3]; Homo sapiens,2.7 µM
same,CC50,[3]; [32],> 100 µM
same,TGI,[4],>100 µM
same,GI50,[4]; Homo sapiens,5.21 µM
same,CC50,[4]; [32],> 100 µM
same,TGI,[5],>100 µM
same,GI50,[5]; Homo sapiens,6.41 µM
same,CC50,[5]; [32],> 100 µM
same,TGI,[6],>100 µM
same,GI50,[6]; Homo sapiens,8.08 µM
same,CC50,[6]; [32],> 100 µM
same,TGI,[7],>100 µM
same,GI50,[7]; Homo sapiens,3.72 µM
same,CC50,[7]; [32],> 100 µM
same,TGI,[8],>100 µM
same,GI50,[8]; Homo sapiens,5.81 µM
same,CC50,[8]; [32],> 100 µM
same,TGI,[9],>100 µM
same,GI50,[9]; Homo sapiens,> 100 µM
same,CC50,[9]; [32],> 100 µM
same,TGI,[10],4.89 µM
same,GI50,[10]; Homo sapiens,1.46 µM
same,CC50,[10]; [32],> 100 µM
same,TGI,[11],3.42 µM
same,GI50,[11]; Homo sapiens,1.34 µM
same,CC50,[11]; [32],8.76 µM
same,antifungal activity (in words),[1],most effective against fungal strains
same,TGI,[12],>100 µM
same,GI50,[12]; Homo sapiens,4.42 µM
same,CC50,[12]; [32],> 100 µM
same,TGI,[13],>100 µM
same,GI50,[13]; Homo sapiens,7.24 µM
same,CC50,[13]; [32],> 100 µM
same,TGI,[14],9.63 µM
same,GI50,[14]; Homo sapiens,2.5 µM
same,CC50,[14]; [32],> 100 µM
same,TGI,[15],>100 µM
same,GI50,[15]; Homo sapiens,2.11 µM
same,CC50,[15]; [32],> 100 µM
same,TGI,[16],>100 µM
same,GI50,[16]; Homo sapiens,3.83 µM
same,CC50,[16]; [32],> 100 µM
same,TGI,[17],>100 µM
same,GI50,"[17]; Homo sapiens, T47D",7.13 µM
same,CC50,"[17]; Homo sapiens, T47D, read-out: LC50 (the source's name)",> 100 µM
same,TGI,[18],>100 µM
same,GI50,[18]; Homo sapiens,3.7 µM
same,CC50,[18]; [32],> 100 µM
same,TGI,[19],>100 µM
same,GI50,[19]; Homo sapiens,9.7 µM
same,CC50,[19]; [32],> 100 µM
same,TGI,[20],>100 µM
same,GI50,[20]; Homo sapiens,3.07 µM
same,CC50,[20]; [32],> 100 µM
same,TGI,[21],>100 µM
same,GI50,[21]; Homo sapiens,4.72 µM
same,CC50,[21]; [32],> 100 µM
same,GI50,[22],3.26 µM
same,CC50,[22]; read-out: LC50 (the source's name),> 100 µM
same,TGI,[23],>100 µM
same,GI50,[23]; Homo sapiens,5.29 µM
same,CC50,[23]; [32],> 100 µM
same,TGI,[24],>100 µM
same,GI50,[24]; Homo sapiens,3.85 µM
same,CC50,[24]; [32],> 100 µM
same,TGI,[25],>100 µM
same,GI50,[25]; Homo sapiens,6.28 µM
same,CC50,[25]; [32],> 100 µM
same,TGI,[26],>100 µM
same,GI50,[26]; Homo sapiens,5.36 µM
same,CC50,[26]; [32],> 100 µM
same,GI50,"[27]; Homo sapiens, Malme-3M",2.07 µM
same,CC50,"[27]; Homo sapiens, Malme-3M, read-out: LC50 (the source's name)",> 100 µM
same,TGI,[27]; MALME-3M,>100 µM
same,TGI,[28],>100 µM
same,GI50,[28]; Homo sapiens,4.69 µM
same,CC50,[28]; [32],> 100 µM
same,TGI,[29],>100 µM
same,GI50,[29]; Homo sapiens,3.38 µM
same,CC50,[29]; [32],> 100 µM
same,TGI,[30],>100 µM
same,GI50,[30]; Homo sapiens,2.99 µM
same,CC50,[30]; [32],> 100 µM
O=C1C(Nc2ccc(I)cc2)=CC(c2ccco2)N1c1ccc(I)cc1 (stereo not drawn) [3m],antibacterial activity (in words),[31],highest antibacterial activity
O=C1C(Nc2ccc(I)cc2)=CC(c2ccc3c(c2)OCO3)N1c1ccc(I)cc1 (stereo not drawn) [3n],antibacterial activity (in words),[31],highest antibacterial activity
